Results reported in US8859615B2, “Compounds, compositions and methods for reducing toxicity and treating or preventing diseases” (priority 2008, dated 2014).
Like-named read-outs stand apart in the source and are kept apart here.

Tests used:
[1] = test system: CCRF-CEM subline resistant to TAXOL; assay: In vitro cytotoxicity against TAXOL-resistant CCRF-CEM subline; assay type: cell-based, human; settings: for IC50: Homo sapiens, CCRF-CEM; for fold of cross-resistance (CCRF-CEM/TAXOL vs parent cell line): Table 3D, given as x or -fold
human PMBC lymphocytes = assay: Time course of effects on proliferation of human lymphocytes (XTT and CCK-8; Table 6); assay type: cell-based; settings: Lymphocyte, read-out: Dm
Method: Absorbance was measured by Powerwave a XS microplate spectrophotometer.
The effect of compounds of the invention on the proliferation of human lymphocytes at different time points are shown in Table 6 as results of XTT and CCK-8 tetrazolium assays following 24-hour, 72-hour, and 120-hour incubation. […] Cultured human PMBC lymphocytes were used in the assay. The procedures employed are taught in the General Biological Methods section.

human PBMC lymphocytes = assay: DNA synthesis ([3H]thymidine incorporation) in human PBMC lymphocytes (FIG. 8); assay type: cell-based; settings: for maximal human lymphocyte stimulation concentration: at 120 hrs, FIG. 8B, C, D
Text: FIG. 8 show the effects of PHA and different concentrations of compounds of the invention, at different time points, on the proliferation of a culture of human lymphocytes as measured by DNA synthesis through incorporation of radiolabeled thymidine into the DNA.
The main principle and method of experiments for human PBMC lymphocytes and for mouse splenocytes stimulations were the same, since both measure immunological cell stimulation by PHA, PXT and compounds of the invention. Both the lymphocyte and the splenocyte assays measure the ^3H-dThd tracer as an indication of DNA synthesis. For PBMC lymphocytes (FIGS. 9A-9G), the experimental methods are those for splenocytes disclosed in Example 24 (FIGS. 11A-11F; FIGS. 12A-12E), except 0.282×10^6 PBMC lymphocyte cells in 198.5 μl was used, and the experimental incubation time was extended to 120 hr.
Briefly, to generate the data in Tables 8A and 8B, the compounds were tested in a [^3H] thymidine uptake experiment using PBMC human lymphocytes obtained from the New York Blood Center. PBMC human lymphocytes were exposed to compounds at 0.03, 0.1, 0.3, and 1.0 μM for 24 hours, and examined for increased [^3H] thymidine uptake. Human lymphocytes were also exposed to compounds for an extended time, e.g., 48 hrs and 72 hrs, instead of 24 hrs, in the [^3H] thymidine uptake assay, and examined to determine the extent of increased [^3H] thymidine uptake to determine if extended exposure will further increase the immune-enhancing effects of the compounds. Increased [^3H] thymidine uptake is interpreted as increased DNA synthesis, which indicates cell growth and division. In the case of immune system cells, this should result in an immune-enhancing effect. The compounds are compared by their IC50 values and/or their effect on [^3H] thymidine uptake at a given concentration and/or time point.

CD-1 mouse splenocytes = assay: Splenocyte stimulation: [3H]dThd incorporation into DNA (Table 7, FIGS. 10, 11); assay type: cell-based; settings: for proliferative activity life-span of normal mouse splenocytes in vitro: FIGS. 10 and 11; for stimulation of DNA synthesis ([3H] thymidine uptake) by mouse splenocytes / Incorporation of [3H]dThd into Mouse Splenocyte DNA (cpm): Table 7; for Incorporation of [3H]dThd into Mouse Splenocyte DNA (cpm): control 224 ± 28
Text: FIG. 10 show controls and the effects of different concentrations of compounds of the invention, at different time points, on the proliferation of cultured mouse splenocytes as measured by DNA synthesis through incorporation of radiolabeled thymidine into the cells' DNA.
FIG. 11 show controls and the effects of different concentrations of compounds of the invention, at different time points, on the proliferation of cultured mouse splenocytes as measured by DNA synthesis through incorporation of radiolabeled thymidine into the DNA.
Splenocytes were prepared from CD mice as a single cell suspension, and treated with red blood cell (RBC) lysis buffer (as described at http://www.ebioscience.com/ebioscience/specs/antibody—00/00-4333.htm) to remove RBCs. In a typical experiment, splenocyte stimulations by […] (PHA), panaxytriol (PXT) or Compound D were measured by using tritium-labeled thymidine, ^3H-dThd, as a tracer for DNA synthesis. DNA synthesis correlates with cell proliferation. The incubation mixture consisted of splenocyte suspension in RPMI 1640 medium (1.56×10^6 cells in 198.5 μl)+3 μg of PHA in 1 μl+ the test compound at various concentrations in 0.5 μl in dimethyl sulfoxide (DMSO), to a final concentration of 200 μl per microplate well. DMSO alone was used in place of the compound in DMSO as a control. The incubation was carried out in 5% CO2-humidified atmosphere at 37° C. for a designated time [e.g., 24 hr, 48 hr, 72 hr, 96 hr]. At the end of the incubation period, ^3H-dThd 1 μCi in 1 μl was added for an additional 6 hr incubation. The reaction was stopped by adding one volume of 20% trichloroacetic acid (TCA), homogenized at 3° C. and washed with 20% TCA. The precipitate was heat extracted (90°) with 10% TCA for 15 minutes to obtain the DNA fraction, which has the radiolabel incorporated, in the supernatant. The supernatant was added to a 7-fold volume of Liquicint for scintillation counting, which was accomplished with a Beckman LS 6000 IC spectrometer from Beckman Coulter Co. The incorporation of [^3H]dThd into DNA of splenocytes were measured as described above or previously (Chou et al. Phytotherap. Res. 3: 237-242, 1989). The results are depicted in FIGS. 11 and 12.
For the cell-counting assays, the cells were washed with RPMI 1640 medium and followed by centrifugation. The cell number was counted with a hemocytometer. Splenocyte suspensions (0.4×10^6 cells in 0.2 ml) in flat bottom 96-well plates were incubated with [^3H]dThd (1 μCi) for 24-hrs in the absence or presence of […] (PHA, 0.1 μg/0.2 ml) or panaxytriol (0.03-1 μM). Studies indicate that maximal stimulation occurred at 48 hrs or 72 hrs. The procedure in Table 7 was used to test the splenocytes used in the assays described herein to test the compounds of the invention, shown by PHA stimulation of DNA synthesis. […] Splenocytes from this culture were used in the assays in FIGS. 11 and 12 and the corresponding Examples.

[2] = 72 h, read-out: IC50 CCRF-CEM/TAXOL

C=C[C@H](O)C#CC#CC[C@H]1OC(C)(C)O[C@@H]1CCCCCCC [Compound (D)]
IC50 [1, 2]: 1.03 µM
IC50 ([1]; Table 3A-2, CCK-8, 72-hr exposure, read-out: CCRF-CEM/TAXOL (IC50 in μM)): 1.02 µM
Fold of resistance (IC50 ratio CCRF-CEM/TAXOL vs CCRF-CEM) ([1]; Table 3A-2): 0.90 fold
fold of cross-resistance (CCRF-CEM/TAXOL vs parent cell line) [1]: 2.17 fold
EC50 (human PMBC lymphocytes; 24 hr incubation): 1070 nM
EC50 (human PMBC lymphocytes; 72 hr incubation): 1520 nM
EC50 (human PMBC lymphocytes; 120 hr incubation): 1760 nM
time of maximal stimulation of lymphocyte (human PBMC lymphocytes): 120 h
potency relative to panaxytriol (concentrations for lymphocyte or splenocyte maximal activation) (human PBMC lymphocytes; FIGS. 8, 9, 10, 11): ≥ 10 fold
maximal human lymphocyte stimulation concentration (human PBMC lymphocytes): 0.3 µM
proliferative activity life-span of normal mouse splenocytes in vitro (CD-1 mouse splenocytes): prolonged

C=C[C@@H](O)C#CC#CC[C@@H](O)[C@H](O)CCCCCCC [panaxytriol]
IC50 ([1]; 72 h, read-out: CCRF-CEM/TAXOL (IC50 in μM)): 3.09 µM
IC50 [1, 2]: 5.22 µM
Fold of resistance (IC50 ratio CCRF-CEM/TAXOL vs CCRF-CEM) ([1]; Table 3A-2): 0.84 fold
fold of cross-resistance (CCRF-CEM/TAXOL vs parent cell line) [1]: 1.04 fold
EC50 (human PMBC lymphocytes; 24 hr incubation): 1640 nM
EC50 (human PMBC lymphocytes; 72 hr incubation): 3480 nM
EC50 (human PMBC lymphocytes; 120 hr incubation): 3160 nM
maximal human lymphocyte stimulation concentration (human PBMC lymphocytes): 3 µM
proliferative activity life-span of normal mouse splenocytes in vitro (CD-1 mouse splenocytes): prolonged
stimulation of DNA synthesis ([3H] thymidine uptake) by mouse splenocytes (CD-1 mouse splenocytes): induced stimulation of DNA synthesis
Incorporation of [3H]dThd into Mouse Splenocyte DNA (cpm) (CD-1 mouse splenocytes; 0.03 μM): 227 ± 8.3 cpm
Incorporation of [3H]dThd into Mouse Splenocyte DNA (cpm) (CD-1 mouse splenocytes; 0.1 μM): 251 ± 18 cpm
Incorporation of [3H]dThd into Mouse Splenocyte DNA (cpm) (CD-1 mouse splenocytes; 0.3 μM): 290 ± 20 cpm
Incorporation of [3H]dThd into Mouse Splenocyte DNA (cpm) (CD-1 mouse splenocytes; 1.0 μM): 296 ± 9 cpm
stimulation of DNA synthesis ([3H] thymidine uptake) by mouse splenocytes (CD-1 mouse splenocytes; listed as Panaxytriol): enhance [^3H] thymidine uptake into splenic cells in a dose-dependent manner
